Measured values published in patent US7829524B2, “Antimicrobial peptides” (Novozymes Adenium Biotech A/S, priority 2003, dated 2010).
Where two headings read alike, the source gives them in different places. Where no end group is shown, it is not given here.

Columns and labels:
[1] = tested on: Clostridium difficile ATCC 43594; test: NCCLS microdilution broth assay (MIC), wound infection strains; format: cell-based; details: Table 1; cationic adjusted Muller-Hinton Broth; highest concentration tested 32 μg/ml
Description: (§1) According to the NCCLS guidelines for susceptibility test of novel antimicrobial compounds, we found a broad spectrum of activity of Cat1 (Methods for Dilution Antimicrobial Susceptibility Tests for Bacteria That Grow Aerobically; Approved Standard-Fifth Edition. NCCLS document M7-A5 (ISBN1-56238-394-9)).
(§2) In another campaign, the specific MICs of Cat1 were determined against a variety of microbial strains relevant for wound infections. As recommended in the above-mentioned NCCLS protocol, the strains were grown in cationic adjusted Muller-Hinton Broth. The highest concentration tested was 32 μg/ml.

[2] = tested on: Klebsiella pneumoniae (DSM681); format: cell-based
Description: as §1
(§3) The antimicrobial activity of the polypeptides of the invention was analyzed using the Microdilution Broth Assay (see Example 1) with Mueller Hinton Broth (MHB) media. Four different bacterial strains were tested in this setup; Micrococcus luteus (ATCC 9341), Pseudomonas aeruginosa (ATCC 27853), Escherichia coli (ATCC 10536) and Klebsiella pneumoniae (DSM681). The amino acid sequence of the polypeptides and the Minimal Inhibitory concentrations (MIC, microgram/ml) obtained is presented in Table 7 below.

[3] = tested on: Pseudomonas aeroginosa (ATCC27853); format: cell-based, Pseudomonas aeruginosa
Description: as §1, §2
Minimal inhibitory concentrations of Cat1 were also determined using cation-adjusted Mueller hinton broth (MHB) in the microbroth dilution assay, wherein MHB was used with different modifications as depicted in Table 2 below. The selected test organism was Pseudomonas aeroginosa (ATCC 27853). […]

[4] = tested on: Pseudomonas aeroginosa (ATCC 27853); test: Killing kinetics in MHB; format: cell-based, Pseudomonas aeruginosa; details: Cat1 at 4×MIC
Description: The rate of killing of Cat1 was determined in MHB using Pseudomonas aeroginosa (ATCC 27853) as the test organism. The bacteria were incubated with Cat1 (at 4×MIC concentration). At different time-points, several dilutions of the preparation were plated and an estimate of viable cells was determined (CFU/ml). The results in Table 3 indicate that Cat1 rapidly kills the bacteria, with a near 3-log reduction in CFU within 30 minutes.

[5] = tested on: Staphylococcus epidermidis (DSM1798); test: NCCLS microdilution broth assay (MIC); format: cell-based; details: susceptible strain, NCCLS guidelines
Text: as §1

[6] = tested on: Bacillus subtilis (ATCC6633); test: NCCLS microdilution broth assay (MIC); format: cell-based; details: susceptible strain, NCCLS guidelines
Text: as §1

[7] = tested on: Klepsiella pneumoniae (ATCC10031); test: NCCLS microdilution broth assay (MIC); format: cell-based; details: susceptible strain, NCCLS guidelines
Text: as §1

[8] = tested on: Enterococcus faecalis (DSM2570); test: NCCLS microdilution broth assay (MIC); format: cell-based; details: susceptible strain, NCCLS guidelines
Text: as §1

[9] = tested on: Bortadella bronchiseptica (ATCC4617); test: NCCLS microdilution broth assay (MIC); format: cell-based; details: susceptible strain, NCCLS guidelines
Text: as §1

[10] = tested on: Proteus mirabilis (ATCC7002); test: NCCLS microdilution broth assay (MIC); format: cell-based; details: susceptible strain, NCCLS guidelines
Text: as §1

[11] = tested on: bacteria strains; test: NCCLS microdilution broth assay, minimal bactericidal concentration (MBC); format: cell-based; details: compared with MIC (<64 μg/ml) of the susceptible strains
Text: as §1

[12] = tested on: Escherichia coli Top10; test: Radial Diffusion Assay using minimal conditions (MEC); format: cell-based; details: Table 8
Description: (§4) A modified version of a previously published protocol has been applied in the detection of antimicrobial activity (Lehrer et al., (1991) Ultra sensitive assays for endogenous antimicrobial polypeptides J Immunol Methods 137: 167-173). Target bacteria (10^6 colony forming units (CFU)) were added to 10 ml of underlay agarose (1% low electro-endosmosis agarose, 0.03% Trypticase soy broth, 10 mM sodium phosphate, pH 7.4, 37 degrees Celsius). Suspension was solidified on an INTEGRID Petri Dish (Becton Dickinson Labware). A 3 mm Gel Puncher was used to make holes in the underlay agarose (Amersham Pharmacia Biotech, Sweden). Samples were added to the holes and incubated at 37 degrees Celsius, 3 hours. An overlay was poured on top and the plate was incubated overnight (LB media, 7.5% Agar). Antimicrobial activity was seen as bacterial clearing zones around the wells. Living cells was counterstained by adding 10 ml, 0.2 mM MTT (3-(4,5-Dimethylthiazol-2-yl)-2,5-diphenyltetrazolium bromide Thiazolyl blue).
(§5) The antimicrobial activity of the polypeptides of the invention was also analyzed in a Radial Diffusion Assay (see Example 1) using minimal conditions. Two bacterial strains were tested in this setup; Staphylococcus camosus and Escherichia coli Top10. The amino acid sequence of the polypeptides and the Minimal Effective Concentration (MEC, microgram/ml) obtained is presented in table 8 below.

[13] = tested on: Staphylococcus camosus; test: as above; format: cell-based; details: Table 8
Description: as §4, §5

[14] = tested on: Staphylococcus epidermidis (DSM1798); test: Radial diffusion assay (MEC); format: cell-based; details: susceptible species
Description: as §4

[15] = tested on: Bacillus subtilis (ATCC6633); test: Radial diffusion assay (MEC); format: cell-based; details: susceptible species
Description: as §4

[16] = tested on: Staphylococcus aureus (ATCC29737); test: Radial diffusion assay (MEC); format: cell-based; details: susceptible species
Description: as §4

[17] = tested on: Klepsiella pneumoniae (ATCC10031); test: Radial diffusion assay (MEC); format: cell-based; details: susceptible species
Description: as §4

[18] = tested on: Micrococcus luteus (ATCC9341); test: Radial diffusion assay (MEC); format: cell-based; details: susceptible species
Description: as §4

[19] = tested on: Enterococcus faecalis (DSM2570); test: Radial diffusion assay (MEC); format: cell-based; details: susceptible species
Description: as §4

[20] = tested on: Bortadella bronchiseptica (ATCC4617); test: Radial diffusion assay (MEC); format: cell-based; details: susceptible species
Description: as §4

[21] = tested on: Enterococcus hirae (ATCC10541); test: Radial diffusion assay (MEC); format: cell-based; details: susceptible species
Description: as §4

[22] = tested on: Salmonella choleraesuis (DSM9220); test: Radial diffusion assay (MEC); format: cell-based; details: susceptible species
Description: as §4

[23] = tested on: Pseudomonas aeroginosa (ATCC27853); test: Radial diffusion assay (MEC); format: cell-based; details: susceptible species
Description: as §4

[24] = tested on: Proteus mirabilis (ATCC7002); test: Radial diffusion assay (MEC); format: cell-based; details: susceptible species
Description: as §4

[25] = tested on: Eschericia coli (ATCC10536); test: Radial diffusion assay (MEC); format: cell-based; details: susceptible species
Description: as §4

[26] = tested on: Eschericia coil (ATCC10536); format: cell-based, Escherichia coli
Description: as §1, §3

[27] = susceptible strain, NCCLS guidelines

GLLRRLRKKIGKKLKKIGQKIKPIRILVP [SEQ ID NO: 3]
MIC [1]: 32 µg/mL | MIC [2]: 32 to 64 µg/mL | MIC ([3]; ATCC27853, pH 5.5): 6 µg/mL | MIC ([3]; ATCC27853, pH 6.5): 6 µg/mL | MIC [3, 27]: < 64 µg/mL | viable cells (CFU/ml) ([4]; 0.5 hours): 175 CFU/ml | viable cells (CFU/ml) ([4]; 1.5 hours): <20 CFU/ml | viable cells (CFU/ml) ([4]; 24 hours): <20 CFU/ml | reduction in CFU ([4]; within 30 minutes): ~3 log | MIC [5]: < 64 µg/mL | MIC [6]: < 64 µg/mL | MIC [7]: < 64 µg/mL | MIC [8]: < 64 µg/mL | MIC [9]: < 64 µg/mL | MIC [10]: < 64 µg/mL | Minimal bactericidal concentration (MBC) [11]: in a similar range | MEC [12]: 8.5 µg/mL | MEC [13]: 2.5 µg/mL | Minimal Effective Concentration (MEC) [14]: < 64 µg/mL | Minimal Effective Concentration (MEC) [15]: < 64 µg/mL | Minimal Effective Concentration (MEC) [16]: < 64 µg/mL | Minimal Effective Concentration (MEC) [17]: < 64 µg/mL | Minimal Effective Concentration (MEC) [18]: < 64 µg/mL | Minimal Effective Concentration (MEC) [19]: < 64 µg/mL | Minimal Effective Concentration (MEC) [20]: < 64 µg/mL | Minimal Effective Concentration (MEC) [21]: < 64 µg/mL | Minimal Effective Concentration (MEC) [22]: < 64 µg/mL | Minimal Effective Concentration (MEC) [23]: < 64 µg/mL | Minimal Effective Concentration (MEC) [24]: < 64 µg/mL | Minimal Effective Concentration (MEC) [25]: < 64 µg/mL | MIC ([26]; ATCC10536): 8 µg/mL | MIC [26, 27]: < 64 µg/mL
